{"source": "paper PMC5218480", "about": "(PLoS ONE, 2017)", "system": "MV-4-11 cells", "test": "Gene expression microarray analysis (Affymetrix PrimeView) and GSEA", "format": "cell-based, human", "set-up": "RFU PODN (11730768_x_at) / Fold change /veh PODN (11730768_x_at) / RFU LINC00158 (11744669_a_at) / Fold change /veh LINC00158 (11744669_a_at) / RFU DUSP10 (11751237_a_at) / Fold change /veh DUSP10 (11751237_a_at) / RFU ID3 (11757404_x_at) / Fold change /veh ID3 (11757404_x_at) / RFU PLEKHG5 (11737974_s_at) / Fold change /veh PLEKHG5 (11737974_s_at) / RFU LRRC4B (11730491_at) / Fold change /veh LRRC4B (11730491_at) / RFU GIMAP4 (11747438_a_at) / Fold change /veh GIMAP4 (11747438_a_at) / RFU KRT8 (11758183_x_at) / Fold change /veh KRT8 (11758183_x_at) / RFU CNN1 (11734310_a_at) / Fold change /veh CNN1 (11734310_a_at) / RFU VPS37D (11726825_at) / Fold change /veh VPS37D (11726825_at) / RFU C10orf10 (11716522_x_at) / Fold change /veh C10orf10 (11716522_x_at) / RFU KIR2DL2 /// KIR2DL4 /// KIR2DL5A /// KIR2DL5B /// KIR2DS1 /// KIR2DS2 /// KIR2DS3 /// KIR2DS4 /// KIR3DL3 /// KIR3DL3 /// KIR3DS1 (11738374_at) / Fold change /veh KIR2DL2 /// KIR2DL4 /// KIR2DL5A /// KIR2DL5B /// KIR2DS1 /// KIR2DS2 /// KIR2DS3 /// KIR2DS4 /// KIR3DL3 /// KIR3DL3 /// KIR3DS1 (11738374_at) / RFU C1QL1 (11718748_at) / Fold change /veh C1QL1 (11718748_at) / RFU TMPRSS4 (11747572_a_at) / Fold change /veh TMPRSS4 (11747572_a_at) / RFU HAMP (11756126_x_at) / Fold change /veh HAMP (11756126_x_at) / RFU RNFT2 (11725882_a_at) / Fold change /veh RNFT2 (11725882_a_at) / RFU NR4A2 (11747474_a_at) / Fold change /veh NR4A2 (11747474_a_at) / RFU ABCC12 (11746883_a_at) / Fold change /veh ABCC12 (11746883_a_at) / RFU TMEM136 (11760407_x_at) / Fold change /veh TMEM136 (11760407_x_at) / RFU CLDN22 /// WWC2 (11732394_at) / Fold change /veh CLDN22 /// WWC2 (11732394_at) / RFU HLA-DPB1 (11760878_x_at) / Fold change /veh HLA-DPB1 (11760878_x_at) / RFU SPINT1 (11716480_a_at) / Fold change /veh SPINT1 (11716480_a_at) / RFU GAP43 (11754022_s_at) / Fold change /veh GAP43 (11754022_s_at) / RFU A4GNT (11735810_at) / Fold change /veh A4GNT (11735810_at) / RFU PRB3 (11715151_x_at) / Fold change /veh PRB3 (11715151_x_at) / RFU TUBB4B (11761932_at) / Fold change /veh TUBB4B (11761932_at) / RFU CAPN14 (11732068_a_at) / Fold change /veh CAPN14 (11732068_a_at) / RFU TMCC2 (11721928_a_at) / Fold change /veh TMCC2 (11721928_a_at) / RFU IRGQ (11745062_a_at) / Fold change /veh IRGQ (11745062_a_at) / RFU FAM174B (11720279_a_at) / Fold change /veh FAM174B (11720279_a_at) / RFU TMPRSS4 (11748680_a_at) / Fold change /veh TMPRSS4 (11748680_a_at) / RFU FAM212B (11763350_a_at) / Fold change /veh FAM212B (11763350_a_at) / RFU PLEKHG5 (11743358_a_at) / Fold change /veh PLEKHG5 (11743358_a_at) / RFU ZSCAN30 (11745921_a_at) / Fold change /veh ZSCAN30 (11745921_a_at) / RFU CMKLR1 (11741424_a_at) / Fold change /veh CMKLR1 (11741424_a_at) / RFU LOC101060620 /// MAPK8IP1 (11723275_at) / Fold change /veh LOC101060620 /// MAPK8IP1 (11723275_at) / RFU SPTSSB (11747773_x_at) / Fold change /veh SPTSSB (11747773_x_at) / RFU PRSS12 (11739890_at) / Fold change /veh PRSS12 (11739890_at) / RFU BIN1 (11741810_x_at) / Fold change /veh BIN1 (11741810_x_at) / RFU WNT11 (11732464_a_at) / Fold change /veh WNT11 (11732464_a_at) / RFU C10orf10 (11716521_a_at) / Fold change /veh C10orf10 (11716521_a_at) / RFU C5orf56 (11738089_at) / Fold change /veh C5orf56 (11738089_at) / RFU CYB561 (11721691_x_at) / Fold change /veh CYB561 (11721691_x_at) / RFU ANKRD19P (11752326_a_at) / Fold change /veh ANKRD19P (11752326_a_at) / RFU OR2T12 /// OR2T33 /// OR2T8 (11738714_s_at) / Fold change /veh OR2T12 /// OR2T33 /// OR2T8 (11738714_s_at) / RFU VCAN (11748164_a_at) / Fold change /veh VCAN (11748164_a_at) / RFU JSRP1 (11732532_at) / Fold change /veh JSRP1 (11732532_at) / RFU KRTAP10-11 (11738290_x_at) / Fold change /veh KRTAP10-11 (11738290_x_at) / RFU MYO3A (11730013_a_at) / Fold change /veh MYO3A (11730013_a_at) / RFU EBF3 (11725865_a_at) / Fold change /veh EBF3 (11725865_a_at) / RFU CAMK2N1 (11719241_x_at) / Fold change /veh CAMK2N1 (11719241_x_at) / RFU C5orf56 (11738088_a_at) / Fold change /veh C5orf56 (11738088_a_at) / RFU OLFML3 (11715873_a_at) / Fold change /veh OLFML3 (11715873_a_at) / RFU LOC100653217 /// NTM (11731650_a_at) / Fold change /veh LOC100653217 /// NTM (11731650_a_at) / RFU MAPK11 (11762145_a_at) / Fold change /veh MAPK11 (11762145_a_at) / RFU FIZ1 (11724087_x_at) / Fold change /veh FIZ1 (11724087_x_at) / RFU OASL (11726364_x_at) / Fold change /veh OASL (11726364_x_at) / RFU SOX15 (11748057_x_at) / Fold change /veh SOX15 (11748057_x_at) / RFU CD79A (11719716_a_at) / Fold change /veh CD79A (11719716_a_at) / RFU HIST1H1D (11736915_at) / Fold change /veh HIST1H1D (11736915_at) / RFU CASKIN2 (11723855_a_at) / Fold change /veh CASKIN2 (11723855_a_at) / RFU LOC730098 (11760151_x_at) / Fold change /veh LOC730098 (11760151_x_at) / RFU OR4N2 (11742367_at) / Fold change /veh OR4N2 (11742367_at) / RFU PRRT2 (11749266_a_at) / Fold change /veh PRRT2 (11749266_a_at) / RFU SNX32 (11753110_a_at) / Fold change /veh SNX32 (11753110_a_at) / RFU CDHR5 (11726645_a_at) / Fold change /veh CDHR5 (11726645_a_at) / RFU RCAN1 (11760418_a_at) / Fold change /veh RCAN1 (11760418_a_at) / RFU FAM167A (11723789_a_at) / Fold change /veh FAM167A (11723789_a_at) / RFU FAM26E (11764081_at) / Fold change /veh FAM26E (11764081_at) / RFU ISYNA1 (11749810_s_at) / Fold change /veh ISYNA1 (11749810_s_at) / RFU ACY1 (11761880_at) / Fold change /veh ACY1 (11761880_at) / RFU 11764098_at / Fold change /veh 11764098_at / RFU SAMD14 (11745864_x_at) / Fold change /veh SAMD14 (11745864_x_at) / RFU NPB (11741838_a_at) / Fold change /veh NPB (11741838_a_at) / RFU TMPRSS6 (11731388_a_at) / Fold change /veh TMPRSS6 (11731388_a_at) / RFU KRTAP10-2 (11738614_at) / Fold change /veh KRTAP10-2 (11738614_at) / RFU ARHGAP8 /// PRR5-ARHGAP8 (11727945_x_at) / Fold change /veh ARHGAP8 /// PRR5-ARHGAP8 (11727945_x_at) / RFU KRTAP5-7 /// NADSYN1 (11734609_at) / Fold change /veh KRTAP5-7 /// NADSYN1 (11734609_at) / RFU RASL12 (11751679_a_at) / Fold change /veh RASL12 (11751679_a_at) / RFU CDKN2B (11736163_a_at) / Fold change /veh CDKN2B (11736163_a_at) / RFU PRF1 (11729649_at) / Fold change /veh PRF1 (11729649_at) / RFU, ZNF638 /// ZNF638-IT1 / Fold change vs veh, ZNF638 /// ZNF638-IT1 / RFU, PANK3 / Fold change vs veh, PANK3 / RFU, SH3YL1 / Fold change vs veh, SH3YL1 / RFU, ZEB2 / Fold change vs veh, ZEB2 / RFU, NRIP1 / Fold change vs veh, NRIP1 / RFU, PTTG1IP / Fold change vs veh, PTTG1IP / RFU, CAPN2 / Fold change vs veh, CAPN2 / RFU, MED14 / Fold change vs veh, MED14 / RFU, SNORA58 / Fold change vs veh, SNORA58 / RFU, C1orf63 / Fold change vs veh, C1orf63 / RFU, LRRFIP1 / Fold change vs veh, LRRFIP1 / RFU, NDUFAF7 / Fold change vs veh, NDUFAF7 / RFU, SLC12A2 / Fold change vs veh, SLC12A2 / RFU, IBTK / Fold change vs veh, IBTK / RFU, ESF1 / Fold change vs veh, ESF1 / Fold change vs veh, TMEM50B / RFU, TAOK1 / Fold change vs veh, TAOK1 / RFU, ACBD3 / Fold change vs veh, ACBD3 / RFU, TMA16 / Fold change vs veh, TMA16 / RFU, RWDD3 / Fold change vs veh, RWDD3 / RFU, BCAT1 / Fold change vs veh, BCAT1 / RFU, EDEM3 / Fold change vs veh, EDEM3 / RFU, TMEM33 / Fold change vs veh, TMEM33 / RFU, WDR75 / Fold change vs veh, WDR75 / RFU, AHCTF1 / Fold change vs veh, AHCTF1 / RFU, TFRC / Fold change vs veh, TFRC / RFU, ZDHHC17 / Fold change vs veh, ZDHHC17 / RFU, NOM1 / Fold change vs veh, NOM1 / RFU, ARL8B / Fold change vs veh, ARL8B / RFU, ZBTB11 / Fold change vs veh, ZBTB11 / RFU, TAMM41 / Fold change vs veh, TAMM41 / RFU, KIAA1704 /// LOC100996395 / Fold change vs veh, KIAA1704 /// LOC100996395 / RFU, ING1 / Fold change vs veh, ING1 / RFU, TRMT61B / Fold change vs veh, TRMT61B / RFU, FUBP3 / Fold change vs veh, FUBP3 / RFU, TP53 / Fold change vs veh, TP53 / RFU, TNKS2 / Fold change vs veh, TNKS2 / RFU, ZFP14 / Fold change vs veh, ZFP14 / RFU, ACTR2 / Fold change vs veh, ACTR2 / RFU, PPP3R1 / Fold change vs veh, PPP3R1 / RFU, PIK3R1 / Fold change vs veh, PIK3R1 / RFU, HNRNPA1 / Fold change vs veh, HNRNPA1 / RFU, RNF170 / Fold change vs veh, RNF170 / RFU, ZNF28 / Fold change vs veh, ZNF28 / RFU, RNGTT / Fold change vs veh, RNGTT / RFU, OGT / Fold change vs veh, OGT / RFU, BRD1 / Fold change vs veh, BRD1 / RFU, MARS / Fold change vs veh, MARS / RFU, ZNF655 / Fold change vs veh, ZNF655 / RFU, FAHD1 / Fold change vs veh, FAHD1 / RFU, BDP1 / Fold change vs veh, BDP1 / RFU, LRRCC1 / Fold change vs veh, LRRCC1 / RFU, ARID1A / Fold change vs veh, ARID1A / RFU, ZNF146 / Fold change vs veh, ZNF146 / RFU, ZNF330 / Fold change vs veh, ZNF330 / RFU, GPN3 / Fold change vs veh, GPN3 / RFU, C9orf123 / Fold change vs veh, C9orf123 / RFU, N4BP2L2 / Fold change vs veh, N4BP2L2 / RFU, ARFIP1 / Fold change vs veh, ARFIP1 / RFU, FAM179B / Fold change vs veh, FAM179B / RFU, BCL10 / Fold change vs veh, BCL10 / RFU, UHRF1BP1L / Fold change vs veh, UHRF1BP1L / RFU, BET1 / Fold change vs veh, BET1 / RFU, CNOT2 / Fold change vs veh, CNOT2 / RFU, ZNF268 / Fold change vs veh, ZNF268 / Fold change vs veh, ZNF507 / RFU, DGCR2 / Fold change vs veh, DGCR2 / RFU, WDSUB1 / Fold change vs veh, WDSUB1 / Fold change vs veh, HSP90B1 /// MIR3652 / RFU, ADSS / Fold change vs veh, ADSS / RFU, GK / Fold change vs veh, GK / RFU, ZNF148 / Fold change vs veh, ZNF148 / RFU, TAF9 / Fold change vs veh, TAF9 / RFU, SLC1A5 / Fold change vs veh, SLC1A5 / RFU, SLMO2 / Fold change vs veh, SLMO2 / RFU, ABCC4 / Fold change vs veh, ABCC4 / RFU, LOC101060439 /// RAP1B / Fold change vs veh, LOC101060439 /// RAP1B / RFU, RFX7 / Fold change vs veh, RFX7 / RFU, GTPBP10 / Fold change vs veh, GTPBP10 / RFU, CNEP1R1 / Fold change vs veh, CNEP1R1 / RFU, BIVM-ERCC5 /// ERCC5 / Fold change vs veh, BIVM-ERCC5 /// ERCC5 / RFU, ILF3 / Fold change vs veh, ILF3 / RFU 11762660_at / Fold change /veh 11762660_at / RFU VCAN (11757783_s_at) / Fold change /veh VCAN (11757783_s_at) / RFU DDX43 (11728927_at) / Fold change /veh DDX43 (11728927_at) / RFU KRT8 (11758188_x_at) / Fold change /veh KRT8 (11758188_x_at) / RFU NKD1 (11759106_at) / Fold change /veh NKD1 (11759106_at) / RFU SRD5A1 (11742802_a_at) / Fold change /veh SRD5A1 (11742802_a_at) / RFU TPSAB1 /// TPSB2 (11721975_s_at) / Fold change /veh TPSAB1 /// TPSB2 (11721975_s_at) / RFU GSTM3 (11746129_a_at) / Fold change /veh GSTM3 (11746129_a_at) / RFU IL23R (11737362_x_at) / Fold change /veh IL23R (11737362_x_at) / RFU TMEM51 (11727254_a_at) / Fold change /veh TMEM51 (11727254_a_at) / RFU PIWIL2 (11732686_x_at) / Fold change /veh PIWIL2 (11732686_x_at) / RFU ORM1 (11744905_x_at) / Fold change /veh ORM1 (11744905_x_at) / RFU CCDC152 (11743942_at) / Fold change /veh CCDC152 (11743942_at) / RFU ECM1 (11717891_a_at) / Fold change /veh ECM1 (11717891_a_at) / RFU IL23R (11748794_a_at) / Fold change /veh IL23R (11748794_a_at) / RFU TNFAIP8L3 (11732012_x_at) / Fold change /veh TNFAIP8L3 (11732012_x_at) / RFU MBOAT4 (11741988_at) / Fold change /veh MBOAT4 (11741988_at) / RFU 11764193_at / Fold change /veh 11764193_at / RFU TMEM53 (11763286_at) / Fold change /veh TMEM53 (11763286_at) / RFU MAGEB2 (11727129_at) / Fold change /veh MAGEB2 (11727129_at) / RFU TMEM200A (11744735_a_at) / Fold change /veh TMEM200A (11744735_a_at) / RFU CCDC152 (11751479_a_at) / Fold change /veh CCDC152 (11751479_a_at) / RFU FAM211A (11726209_a_at) / Fold change /veh FAM211A (11726209_a_at) / RFU RGS16 (11746705_a_at) / Fold change /veh RGS16 (11746705_a_at) / RFU VCAN (11755009_s_at) / Fold change /veh VCAN (11755009_s_at) / RFU RHOB (11743442_s_at) / Fold change /veh RHOB (11743442_s_at) / RFU RGS16 (11720943_a_at) / Fold change /veh RGS16 (11720943_a_at) / RFU RGS16 (11720944_at) / Fold change /veh RGS16 (11720944_at) / RFU, VPS4B / Fold change vs veh, VPS4B / RFU, CREB1 / Fold change vs veh, CREB1 / RFU, DNAJC13 / Fold change vs veh, DNAJC13 / RFU, GNAQ / Fold change vs veh, GNAQ / RFU, CDK5R1 / Fold change vs veh, CDK5R1 / RFU, ZRANB3 / Fold change vs veh, ZRANB3 / RFU, CUL4A / Fold change vs veh, CUL4A / RFU, CCNY / Fold change vs veh, CCNY / RFU, UFL1 / Fold change vs veh, UFL1 / RFU, COG3 / Fold change vs veh, COG3 / RFU, DIAPH2 / Fold change vs veh, DIAPH2 / RFU, SKA2 / Fold change vs veh, SKA2 / RFU, AFF3 / Fold change vs veh, AFF3 / RFU, LMF1 / Fold change vs veh, LMF1 / RFU, IPO11 / Fold change vs veh, IPO11 / RFU, DFFB / Fold change vs veh, DFFB / RFU, FOXP1 / Fold change vs veh, FOXP1 / RFU, CARD8 / Fold change vs veh, CARD8 / RFU, STRN3 / Fold change vs veh, STRN3 / RFU, ADK / Fold change vs veh, ADK / RFU, RASSF2 / Fold change vs veh, RASSF2 / RFU, WIPF1 / Fold change vs veh, WIPF1 / RFU, LARP1B / Fold change vs veh, LARP1B / RFU, RASA1 / Fold change vs veh, RASA1 / RFU, RB1 / Fold change vs veh, RB1 / RFU, PPFIA1 / Fold change vs veh, PPFIA1 / RFU, MAT2A / Fold change vs veh, MAT2A / RFU, CCT5 / Fold change vs veh, CCT5 / RFU, WDR92 / Fold change vs veh, WDR92 / RFU, CUX1 / Fold change vs veh, CUX1 / RFU, TTC7A / Fold change vs veh, TTC7A / RFU, TMEM135 / Fold change vs veh, TMEM135 / RFU, DEPTOR / Fold change vs veh, DEPTOR / RFU, CPM / Fold change vs veh, CPM / RFU, DNAJB6 / Fold change vs veh, DNAJB6 / RFU, CACNA2D3 / Fold change vs veh, CACNA2D3 / RFU, DTX4 / Fold change vs veh, DTX4 / RFU, TFCP2 / Fold change vs veh, TFCP2 / RFU, GMCL1 /// GMCL1P1 / Fold change vs veh, GMCL1 /// GMCL1P1 / RFU, AEBP2 / Fold change vs veh, AEBP2 / RFU, SNHG1 /// SNORD22 /// SNORD25 /// SNORD26 /// SNORD27 /// SNORD28 /// SNORD29 /// SNORD31 / Fold change vs veh, SNHG1 /// SNORD22 /// SNORD25 /// SNORD26 /// SNORD27 /// SNORD28 /// SNORD29 /// SNORD31 / Fold change (Aza/veh), C12orf56 (ProbeSet 11735607_a_at) / Fold change (ACY-1035/veh), C12orf56 (ProbeSet 11735607_a_at) / Fold change (Aza/veh), FGFR1OP (ProbeSet 11751329_s_at) / Fold change (ACY-1035/veh), FGFR1OP (ProbeSet 11751329_s_at) / Fold change (Aza/veh), VPS36 (ProbeSet 11739960_a_at) / Fold change (ACY-1035/veh), VPS36 (ProbeSet 11739960_a_at) / RFU SYPL1 (11715823_x_at) / Fold change /veh SYPL1 (11715823_x_at) / RFU IGFBP7 (11715501_s_at) / Fold change /veh IGFBP7 (11715501_s_at) / RFU REEP3 (11722064_at) / Fold change /veh REEP3 (11722064_at) / RFU IGLL1 (11728026_x_at) / Fold change /veh IGLL1 (11728026_x_at): dose or concentration left out as unconfirmed", "settings": "MV-4-11 cells, 48 hours", "data": [{"smiles": "Nc1ncn([C@@H]2O[C@H](CO)[C@@H](O)[C@H]2O)c(=O)n1", "note": "[azacitidine]", "values": [{"measurement": "Fold change /veh C1QL1 (11718748_at)", "value": 0.93}]}]}
